Results reported in BindingDB's records for doi:10.1021/acsmedchemlett.8b00461 (Pfizer, 2019).

Key:
[1] = Inhibition of BTK in anti-CD3/CD28-stimulated human CD4-positive T cells assessed as reduction in cell proliferation pretreated for 30 mins followed by anti-CD3/CD28-stimulation and measured after 3 days by [3H]-thymidine incorporation assay
[2] = Inhibition of BTK in goat anti-human IgM F(ab')2-stimulated human B cells assessed as reduction in cell proliferation pretreated for 30 mins followed by goat anti-human IgM F(ab')2-stimulation and measured after 3 days by [3H]-thymidine incorporation assay

## N#CN1CCC[C@@H](n2nc(-c3ccc(Oc4cccc(C(F)(F)F)n4)cc3)c(C(N)=O)c2N)C1
[1]
  IC50: 10100 nM
[2]
  IC50: 15 nM

## N#CN1CCC[C@@H](n2nc(-c3ccc(Oc4ccc(Cl)cn4)cc3)c(C(N)=O)c2N)C1
[1]
  IC50: > 10000 nM
[2]
  IC50: 1.6 nM

## N#CN1CCC[C@@H](n2nc(-c3ccc(Oc4ncc(Cl)cc4F)cc3)c(C(N)=O)c2N)C1 [(R)-5-amino-3-(4-((5-chloro-3-fluoropyridin-2-yl)oxy)phenyl)-1-(1-cyanopiperidin-3-yl)-1H-pyrazole-4-carboxamide]
[1]
  IC50: > 10000 nM
[2]
  IC50: 19 nM

## N#CN1CCC[C@@H](n2nc(-c3ccc(Oc4ccc(F)cc4F)cc3)c(C(N)=O)c2N)C1
[1]
  IC50: > 10000 nM
[2]
  IC50: 2.7 nM

## N#CN1CCCC(n2nc(-c3ccc(Oc4ccc(Cl)cc4)cc3)c(C(N)=O)c2N)C1 (single isomer, unassigned)
[1]
  IC50: 8150 nM
[2]
  IC50: 1.7 nM
